Data taken from paper PMC9182199, “Borylated 2,3,4,5-Tetrachlorophthalimide and Their 2,3,4,5-Tetrachlorobenzamide Analogues: Synthesis, Their Glycosidase Inhibition and Anticancer Properties in View to Boron Neutron Capture Therapy” (Molecules, 2022).

Tests used:
HT29 = assay: MTT cell growth inhibition: HT29; format: cell-based; settings: HT29 colon carcinoma, 72 h
Method: (§1) All test agents were prepared as stock solutions (20 mM) in dimethyl sulfoxide (DMSO) and stored at −20 °C. Cell lines used in the study included HT29 (colorectal carcinoma); U87, SJ-G2, (glioblastoma); MCF-7, (breast carcinoma); A2780 (ovarian carcinoma); H460 (lung carcinoma); A431 (skin carcinoma); Du145 (prostate carcinoma); BE2-C (neuroblastoma); MiaPaCa-2 (pancreatic carcinoma); and SMA560 (spontaneous murine astrocytoma), together with the one non-tumour-derived normal breast cell line (MCF10A). All cell lines were incubated in a humidified atmosphere 5% CO2 at 37 °C. The cancer cell lines were maintained in Dulbecco’s modified Eagle’s medium (DMEM; Sigma, Australia) supplemented with foetal bovine serum (10%), sodium pyruvate (10 mM), penicillin (100 IUmL^−1), streptomycin (100 µg mL^−1) and L-glutamine (2 mM).
(§2) Growth inhibition was determined by plating cells in duplicate in medium (100 µL) at a density of 2500–4000 cells per well in 96-well plates. On day 0 (24 h after plating), when the cells were in logarithmic growth, medium (100 µL) with or without the test agent was added to each well. After 72 h drug exposure, growth inhibitory effects were evaluated using the MTT (3-(4,5-dimethyltiazol-2-yl)-2,5-diphenyltetrazolium bromide) assay and absorbance read at 540 nm. The percentage growth inhibition was calculated at a fixed concentration of 25 µM, based on the difference between the optical density values on day 0 and those at the end of drug exposure. Each data point is the mean ± the standard error of the mean (SEM) calculated from three replicates which were performed on separate occasions and separate cell line passages.

[1] = tested on: bovine liver β-glucuronidase; assay: Glycosidase inhibition, laboratory 1: bovine liver β-glucuronidase; format: biochemical; settings: 1000 μM, methanol
Source text: (§3) The enzymes α-glucosidase (from yeast), β-glucosidases (from almond and bovine liver), α-galactosidase (from coffee beans), β-galactosidase (from bovine liver), α-mannosidase (from Jack bean), β-mannosidase (from snail), α-L-rhamnosidase (from Penicillium decumbens), α-L-fucosidase (from bovine kidney), trehalase (from porcine kidney), β-glucuronidases (from E. coli and bovine liver), amyloglucosidase (from A. niger), para-nitrophenyl glycosides, and various disaccharides were purchased from Sigma-Aldrich Co (St Louis, MO, USA).
(§4) Brush border membranes were prepared from the rat small intestine according to the method of Kessler et al. and were assayed at pH 6.8 for rat intestinal maltase using maltose. For rat intestinal maltase, porcine kidney trehalase, and A. niger amyloglucosidase activities, the reaction mixture contained 25 mM maltose and the appropriate amount of enzyme, and the incubations were performed for 10–30 min at 37 °C. The reaction was stopped by heating at 100 °C for 3 min. After centrifugation (600× g; 10 min), the resulting reaction mixture was added to the Glucose CII-test Wako (Wako Pure Chemical Ind., Osaka, Japan). The absorbance at 505 nm was measured to determine the amount of the released D-glucose. Other glycosidase activities were determined using an appropriate para-nitrophenyl glycoside as substrate at the optimum pH of each enzyme. The reaction mixture contained 2 mM of the substrate and the appropriate amount of enzyme. The reaction was stopped by addition of 400 mM Na2CO3. The released para-nitrophenol was measured spectrometrically at 400 nm. All reactions run in methanol.

[2] = target: T1, bovine kidney α-L-fucosidase (Bos taurus, UniProt Q2KIM0); assay: Glycosidase inhibition, laboratory 1: α-L-fucosidase; format: biochemical; settings: 1000 μM, methanol
T1 construct: purchased Sigma-Aldrich Co
T1 sequence (Q2KIM0 23-468): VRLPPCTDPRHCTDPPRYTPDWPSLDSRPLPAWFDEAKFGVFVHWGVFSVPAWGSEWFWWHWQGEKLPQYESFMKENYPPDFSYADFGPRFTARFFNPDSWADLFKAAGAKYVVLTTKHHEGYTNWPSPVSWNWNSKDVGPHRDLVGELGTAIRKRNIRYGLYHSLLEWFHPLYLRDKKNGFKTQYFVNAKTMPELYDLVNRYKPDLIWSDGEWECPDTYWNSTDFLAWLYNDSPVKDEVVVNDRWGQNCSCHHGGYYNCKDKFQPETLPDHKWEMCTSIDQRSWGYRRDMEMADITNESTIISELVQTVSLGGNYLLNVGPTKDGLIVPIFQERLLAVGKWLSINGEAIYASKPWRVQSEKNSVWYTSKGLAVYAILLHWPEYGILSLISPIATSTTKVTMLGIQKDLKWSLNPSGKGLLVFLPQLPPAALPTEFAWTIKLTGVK
Source text: as §3, §4

BE2-C = assay: MTT cell growth inhibition: BE2-C; format: cell-based; settings: BE2-C neuroblastoma, 72 h
Method: as §1, §2

almond β-glucosidase = assay: Glycosidase inhibition, laboratory 1: almond β-glucosidase; format: biochemical; settings: 1000 μM, methanol
Source text: as §3, §4

Du145 = assay: MTT cell growth inhibition: Du145; format: cell-based; settings: Du145 prostate carcinoma, 72 h
Method: as §1, §2

Bacillus α-glucosidase = assay: Glycosidase inhibition, laboratory 2: Bacillus α-glucosidase; format: biochemical; settings: water
Method: All enzymes and para-nitrophenyl substrates were purchased from Sigma. Enzymes were assayed at 27 °C in 0.1 M citric acid/0.2 M disodium hydrogen phosphate buffers at the optimum pH for the enzyme. The incubation mixture consisted of 10 μL enzyme solution, 10 μL of 1 mg/mL aqueous solution of extract and 50 μL of the appropriate 5 mM para-nitrophenyl substrate made up in buffer at the optimum pH for the enzyme. The reactions were stopped by addition of 70 μL 0.4 M glycine (pH 10.4) during the exponential phase of the reaction, which had been determined at the beginning using uninhibited assays in which water replaced inhibitor. Final absorbances were read at 405 nm using a Versamax microplate reader (Molecular Devices). Assays were carried out in triplicate, and the values given are means of the three replicates per assay. All reactions run in water.

[3] = target: T2, A. niger amyloglucosidase (Aspergillus niger, UniProt P69328); assay: Glycosidase inhibition, laboratory 1: amyloglucosidase; format: biochemical; settings: A. niger amyloglucosidase; 1000 μM; methanol
T2 construct: purchased Sigma-Aldrich Co
T2 sequence (P69328 25-640): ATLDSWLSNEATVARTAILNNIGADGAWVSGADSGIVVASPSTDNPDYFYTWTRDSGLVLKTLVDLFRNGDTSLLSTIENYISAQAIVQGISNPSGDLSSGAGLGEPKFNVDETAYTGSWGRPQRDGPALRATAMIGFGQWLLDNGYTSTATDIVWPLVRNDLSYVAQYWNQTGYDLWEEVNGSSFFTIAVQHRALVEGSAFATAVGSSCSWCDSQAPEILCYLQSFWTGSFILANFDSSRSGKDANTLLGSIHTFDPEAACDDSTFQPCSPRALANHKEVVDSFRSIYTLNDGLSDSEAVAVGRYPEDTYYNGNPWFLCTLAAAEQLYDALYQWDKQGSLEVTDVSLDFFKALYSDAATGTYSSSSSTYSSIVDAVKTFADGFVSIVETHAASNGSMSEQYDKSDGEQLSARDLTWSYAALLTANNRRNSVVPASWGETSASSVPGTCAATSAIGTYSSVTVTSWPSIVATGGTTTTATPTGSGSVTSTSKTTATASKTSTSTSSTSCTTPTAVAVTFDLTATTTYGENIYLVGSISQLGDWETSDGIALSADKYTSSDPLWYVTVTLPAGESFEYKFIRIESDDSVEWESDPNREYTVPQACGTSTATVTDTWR
Source text: as §3, §4

SJ-G2 = assay: MTT cell growth inhibition: SJ-G2; format: cell-based; settings: SJ-G2 glioblastoma, 72 h
Method: as §1, §2

A2780 = assay: MTT cell growth inhibition: A2780; format: cell-based; settings: A2780 ovarian carcinoma; 25 µM; 72 h; MTT
Method: as §1, §2

A431 = assay: MTT cell growth inhibition: A431; format: cell-based; settings: A431 skin carcinoma; 25 µM; 72 h; MTT
Method: as §1, §2

[4] = target: T3, coffee beans α-galactosidase (Coffea arabica, UniProt Q42656); assay: Glycosidase inhibition, laboratory 1: coffee beans α-galactosidase; format: biochemical; settings: 1000 μM, methanol
T3 construct: purchased Sigma-Aldrich Co
T3 sequence (Q42656 16-378): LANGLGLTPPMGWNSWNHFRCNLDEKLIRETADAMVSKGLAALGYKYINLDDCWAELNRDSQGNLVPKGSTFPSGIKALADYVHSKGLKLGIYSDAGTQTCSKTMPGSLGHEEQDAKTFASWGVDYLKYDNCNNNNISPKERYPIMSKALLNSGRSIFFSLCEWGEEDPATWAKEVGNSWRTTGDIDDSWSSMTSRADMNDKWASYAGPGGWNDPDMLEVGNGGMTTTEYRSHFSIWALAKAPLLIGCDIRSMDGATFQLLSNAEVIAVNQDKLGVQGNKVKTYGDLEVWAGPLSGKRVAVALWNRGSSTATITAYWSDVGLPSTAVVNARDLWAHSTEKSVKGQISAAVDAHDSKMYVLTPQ
Source text: as §3, §4

## Borocaptate sodium [BSH, reference compound]
HT29
  Percentage (%) Cell Growth Inhibition in response to 25 µM of Drug: 3 ± 2%
[1]
  inhibition % at 1000 μM: ^aNI ^b (19.6%)
[2]
  inhibition % at 1000 μM: ^aNI ^b (0%)
BE2-C
  Percentage (%) Cell Growth Inhibition in response to 25 µM of Drug: 10 ± 6%
Almond β-glucosidase
  inhibition % at 1000 μM: ^aNI ^b (0%)
Du145
  Percentage (%) Cell Growth Inhibition in response to 25 µM of Drug: 0 ± 8%
Bacillus α-glucosidase
  % inhibition at ~400 μM: 48.1%
[3]
  inhibition % at 1000 μM: ^aNI ^b (0%)
SJ-G2
  Percentage (%) Cell Growth Inhibition in response to 25 µM of Drug: 3 ± 8%
A2780
  Percentage (%) Cell Growth Inhibition in response to 25 µM of Drug: 2 ± 5%
A431
  Percentage (%) Cell Growth Inhibition in response to 25 µM of Drug: <0%
[4]
  inhibition % at 1000 μM: ^aNI ^b (12.3%)
